Our source for the Activity and activity values is ChEMBL document CHEMBL2074332, “Molecular and physiological evidence for multifunctionality of carnitine/organic cation transporter OCTN2” (Mol Pharmacol, 2001).

The target of data set [1] is T1, Organic cation/carnitine transporter 2 (Mus musculus, UniProt Q9Z0E8).
T1 sequence (Q9Z0E8 whole entry): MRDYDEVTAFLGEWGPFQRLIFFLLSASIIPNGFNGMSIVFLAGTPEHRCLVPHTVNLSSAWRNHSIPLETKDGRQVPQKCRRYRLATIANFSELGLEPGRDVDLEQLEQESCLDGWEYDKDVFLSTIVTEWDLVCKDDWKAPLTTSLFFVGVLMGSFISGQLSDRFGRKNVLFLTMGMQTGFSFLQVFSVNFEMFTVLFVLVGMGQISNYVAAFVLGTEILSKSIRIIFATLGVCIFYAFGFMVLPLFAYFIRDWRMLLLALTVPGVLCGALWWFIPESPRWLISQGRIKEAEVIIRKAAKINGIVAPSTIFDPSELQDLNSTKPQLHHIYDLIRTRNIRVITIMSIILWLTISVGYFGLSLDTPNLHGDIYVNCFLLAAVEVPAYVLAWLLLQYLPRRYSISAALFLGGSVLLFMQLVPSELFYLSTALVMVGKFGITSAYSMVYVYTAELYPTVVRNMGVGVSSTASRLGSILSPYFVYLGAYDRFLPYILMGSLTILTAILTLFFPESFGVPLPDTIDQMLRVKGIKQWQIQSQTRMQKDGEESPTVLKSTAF
Briefly: TP_TRANSPORTER: uptake in OCTN2-expressing HEK293 cells. Type of data set: functional, cell-based. The conditions noted are these: human.

Data set [2] addresses T2, OCTN2 (organic cation/carnitine transporter 2) (Mus musculus, UniProt Q9Z0E8).
T2 sequence (Q9Z0E8 whole entry): T1 sequence (Q9Z0E8 whole entry)
Briefly: in vitro. The conditions noted are these: human, HEK293 cells that express OCTN2, probe carnitine.
Description: TP_TRANSPORTER: inhibition of Carnitine uptake (Carnitine: 0.01 uM, Choline: 500 uM) in OCTN2-expressing HEK293 cells

Data set [3] has as its target T2, OCTN2 (organic cation/carnitine transporter 2). In words: in vitro. The conditions noted are these: human, HEK293 cells that express OCTN2, probe carnitine. This is another data set of the same source.
Description: TP_TRANSPORTER: inhibition of Carnitine uptake (Carnitine: 0.01 uM, Thiamine: 5000 uM) in OCTN2-expressing HEK293 cells
The target in data set [4] is T1, Organic cation/carnitine transporter 2. In words: TP_TRANSPORTER: inhibition of Carnitine uptake (Carnitine: 0.01 uM, PAH: 500 uM) in OCTN2-expressing HEK293 cells. Type of data set: functional, cell-based. The following applies: human, hek293, 500 µM.
The target in data set [5] is T2, OCTN2 (organic cation/carnitine transporter 2). Briefly: TP_TRANSPORTER: inhibition of Carnitine uptake (Carnitine: 0.01 uM, Quinidine: 500 uM) in OCTN2-expressing HEK293 cells. The class given is functional, cell-based. Further details: scale not given: the % may be the effect or the level left. The following applies: human, HEK293 cells that express OCTN2, probe carnitine; read-out: Activity.

Data set [6] has the same target. Briefly: TP_TRANSPORTER: inhibition of Carnitine uptake (Carnitine: 0.01 uM, Norepinephrine: 5000 uM) in OCTN2-expressing HEK293 cells. The class given is functional, cell-based. Further details: scale not given: the % may be the effect or the level left. The following applies: human, HEK293 cells that express OCTN2, probe carnitine; read-out: Activity.
For data set [7] the target is unchanged. In words: TP_TRANSPORTER: inhibition of Carnitine uptake (Carnitine: 0.01 uM, Verapamil: 500 uM) in OCTN2-expressing HEK293 cells. Type of data set: functional, cell-based. Details: scale not given: the % may be the effect or the level left. The following applies: human, HEK293 cells that express OCTN2, probe carnitine; read-out: Activity.
For data set [8] the target is unchanged. In words: in vitro. The conditions noted are these: human, HEK293 cells that express OCTN2, probe carnitine. The source holds these as a separate data set.
Description: TP_TRANSPORTER: inhibition of Carnitine uptake (Carnitine: 0.01 uM, TEA: 500 uM) in OCTN2-expressing HEK293 cells
Data set [9] has the same target. Briefly: TP_TRANSPORTER: inhibition of Carnitine uptake (Carnitine: 0.01 uM, Diphenhydramine: 500 uM) in OCTN2-expressing HEK293 cells. Type of data set: functional, cell-based. Further details: scale not given: the % may be the effect or the level left. The following applies: human, HEK293 cells that express OCTN2, probe carnitine; read-out: Activity.
The target is the same in data set [10]. In words: TP_TRANSPORTER: inhibition of Carnitine uptake (Carnitine: 0.01 uM, Pyrilamine: 500 uM) in OCTN2-expressing HEK293 cells. Type of data set: functional, cell-based. Further details: scale not given: the % may be the effect or the level left. The conditions noted are these: human, HEK293 cells that express OCTN2, probe carnitine; read-out: Activity.

For data set [11] the target is unchanged. In words: TP_TRANSPORTER: inhibition of Carnitine uptake (Carnitine: 0.01 uM, Acetylcholine: 5000 uM) in OCTN2-expressing HEK293 cells. The class given is functional, cell-based. Further details: scale not given: the % may be the effect or the level left. The conditions noted are these: human, HEK293 cells that express OCTN2, probe carnitine; read-out: Activity.

The target in data set [12] is T1, Organic cation/carnitine transporter 2. Briefly: TP_TRANSPORTER: inhibition of Carnitine uptake (Carnitine: 0.01 uM, Guanidine: 500 uM) in OCTN2-expressing HEK293 cells. Type of data set: functional, cell-based. The following applies: human, hek293, 500 µM.
The target in data set [13] is T2, OCTN2 (organic cation/carnitine transporter 2). Briefly: TP_TRANSPORTER: inhibition of Carnitine uptake (Carnitine: 0.01 uM, Serotonin: 5000 uM) in OCTN2-expressing HEK293 cells. The class given is functional, cell-based. Details: scale not given: the % may be the effect or the level left. The following applies: human, HEK293 cells that express OCTN2, probe carnitine; read-out: Activity.

Data set [14] shares this target. In words: in vitro. The conditions noted are these: human, HEK293 cells that express OCTN2, probe carnitine. The source holds these as a separate data set.
Description: TP_TRANSPORTER: inhibition of Carnitine uptake (Carnitine: 0.01 uM, Dapamine: 5000 uM) in OCTN2-expressing HEK293 cells
For data set [15] the target is unchanged. Briefly: TP_TRANSPORTER: inhibition of Carnitine uptake (Carnitine: 0.01 uM, Procainamide: 500 uM) in OCTN2-expressing HEK293 cells. The class given is functional, cell-based. Further details: scale not given: the % may be the effect or the level left. The conditions noted are these: human, HEK293 cells that express OCTN2, probe carnitine; read-out: Activity.

Data set [16] has the same target. In words: TP_TRANSPORTER: inhibition of Carnitine uptake (Carnitine: 0.01 uM, MPP+: 500 uM) in OCTN2-expressing HEK293 cells. Type of data set: functional, cell-based. Further details: scale not given: the % may be the effect or the level left. The conditions noted are these: human, HEK293 cells that express OCTN2, probe carnitine; read-out: Activity.
Data set [17] deals with T1, Organic cation/carnitine transporter 2. In words: TP_TRANSPORTER: inhibition of Carnitine uptake (Carnitine: 0.01 uM, alpha-KG: 500 uM) in OCTN2-expressing HEK293 cells. The conditions noted are these: human, hek293, 500 µM. The class given is functional, cell-based.
Data set [18] shares this target. In words: TP_TRANSPORTER: inhibition of Carnitine uptake (Carnitine: 0.01 uM, NMN: 500 uM) in OCTN2-expressing HEK293 cells. Type of data set: functional, cell-based. The conditions noted are these: human, hek293, 500 µM.
In data set [19] the target is T2, OCTN2 (organic cation/carnitine transporter 2). In words: TP_TRANSPORTER: inhibition of Carnitine uptake (Carnitine: 0.01 uM, Lidocaine: 500 uM) in OCTN2-expressing HEK293 cells. Type of data set: functional, cell-based. Further details: scale not given: the % may be the effect or the level left. The following applies: human, HEK293 cells that express OCTN2, probe carnitine; read-out: Activity.

The target is the same in data set [20]. In words: TP_TRANSPORTER: inhibition of Carnitine uptake (Carnitine: 0.01 uM, Acetyl-beta-methylcholine: 500 uM) in OCTN2-expressing HEK293 cells. Type of data set: functional, cell-based. Further details: scale not given: the % may be the effect or the level left. The conditions noted are these: human, HEK293 cells that express OCTN2, probe carnitine; read-out: Activity.

On to `CC(=O)O[C@H](CC(=O)[O-])C[N+](C)(C)C` [ACETYLCARNITINE], for which, in data set [1], the Activity result is “substrate [+]”. `C[N+](C)(C)CCO` [CHOLINE]: the activity at 500 µM in data set [2] stood at 74.6%. Consider `Cc1ncc(C[n+]2csc(CCO)c2C)c(N)n1` [THIAMINE ION], for which the activity at 5000 µM in [3] was 65.9%. With `Nc1ccc(C(=O)NCC(=O)O)cc1` [AMINOHIPPURIC ACID], the Activity result was “is not an inhibitor [-]” in data set [4] and “is not a substrate [-]” in [1]. For `C=C[C@H]1C[N@@]2CC[C@H]1C[C@@H]2[C@@H](O)c1ccnc2ccc(OC)cc12` [QUINIDINE], the activity at 500 µM in data set [5] worked out at 6.1%. For the compound `NC[C@H](O)c1ccc(O)c(O)c1` [NOREPINEPHRINE], the activity at 5000 µM in data set [6] amounted to 70.9%. For the compound `COc1ccc(CCN(C)CCCC(C#N)(c2ccc(OC)c(OC)c2)C(C)C)cc1OC` (centres undefined) [VERAPAMIL], the Activity entry in [1] is “substrate [+]”. Also, the activity at 500 µM in data set [7] amounted to 1.3%. In data set [8], `CC[N+](CC)(CC)CC` [TETRYLAMMONIUM] yielded an activity at 500 µM of 15.4%. As for `CN(C)CCOC(c1ccccc1)c1ccccc1` [DIPHENHYDRAMINE], the activity at 500 µM in data set [9] was 43.6%.

On to `COc1ccc(CN(CCN(C)C)c2ccccn2)cc1` [PYRILAMINE], for which the activity at 500 µM in [10] worked out at 36.3%. In data set [1], the Activity entry is “substrate [+]”. As to `CC(=O)OCC[N+](C)(C)C` [ACETYLCHOLINE], the activity at 5000 µM in data set [11] is 34.2%. With `N=C(N)N` [GUANIDINE], the Activity result in data set [12] was “is not an inhibitor [-]”. With `NCCc1c[nH]c2ccc(O)cc12` [SEROTONIN], the activity at 5000 µM in [13] worked out at 51.3%. Regarding `NCCc1ccc(O)c(O)c1` [DOPAMINE], in [14], the activity at 5000 µM came out at 70.9%.

`CCN(CC)CCNC(=O)c1ccc(N)cc1` [PROCAINAMIDE]: the activity at 500 µM in [15] came to 81.3%. Turning to `C[n+]1ccc(-c2ccccc2)cc1`, the activity at 500 µM in data set [16] was found to be 72.9%. The Activity result in [1] is “substrate [+]”. Regarding `O=C(O)CCC(=O)C(=O)O` [ALPHA-KETOGLUTARIC ACID], in [17], the Activity entry is “is not an inhibitor [-]”. Regarding `CNC(=O)c1cccnc1` [NICOTINYL METHYLAMIDE], the Activity result in data set [18] is “is not an inhibitor [-]”.

For `CCN(CC)CC(=O)Nc1c(C)cccc1C` [LIDOCAINE], the activity at 500 µM in data set [19] was 57.1%. Regarding `CC(=O)OC(C)C[N+](C)(C)C` (centres undefined), the activity at 500 µM in data set [20] came to 82.5%.
